Measured values taken from PubChem BioAssay (NCI).
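How tested: cells in 96-well plates exposed to compound for 48 hours at five concentrations. TGI: total growth inhibition.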

What was measured:
Assay in all cases: growth of human tumour cells (NCI), 48 h
[1] = tested on: NCI-H522 lung
[2] = tested on: RPMI-8226 leukemia
[3] = tested on: K-562 leukemia
[4] = tested on: OVCAR-8 ovarian
[5] = tested on: HOP-92 NSCLC
[6] = tested on: NCI-H23 lung
[7] = tested on: DMS 273 small cell lung
[8] = tested on: HOP-18 NSCLC
[9] = tested on: UACC-257 melanoma
[10] = tested on: ACHN renal
[11] = tested on: UO-31 renal
[12] = tested on: NCI-H226 lung
[13] = tested on: SW-620 colon
[14] = tested on: U251 CNS
[15] = tested on: KM12 colon
[16] = tested on: KM20L2 colon
[17] = tested on: NCI-H460 lung
[18] = tested on: SN12C renal
[19] = tested on: A549 NSCLC
[20] = tested on: SNB-75 CNS
[21] = tested on: HT29 colon
[22] = tested on: SK-MEL-5 melanoma
[23] = tested on: HCC-2998 colon
[24] = tested on: XF 498 CNS
[25] = tested on: CCRF-CEM leukemia
[26] = tested on: M14 melanoma
[27] = tested on: RXF 393 renal
[28] = tested on: SK-MEL-2 melanoma
[29] = tested on: SNB-19 CNS
[30] = tested on: SK-MEL-28 melanoma
[31] = tested on: COLO 205 colon
[32] = tested on: HL-60(TB) leukemia
[33] = tested on: SF-295 CNS
[34] = tested on: MALME-3M melanoma
[35] = tested on: SNB-78 CNS
[36] = tested on: OVCAR-5 ovarian
[37] = tested on: HOP-62 NSCLC
[38] = tested on: CAKI-1 renal
[39] = tested on: SF-268 CNS
[40] = tested on: OVCAR-3 ovarian
[41] = tested on: 786-0 renal
[42] = tested on: MOLT-4 leukemia
[43] = tested on: LOX IMVI melanoma
[44] = tested on: EKVX NSCLC
[45] = tested on: DLD-1 colon
[46] = tested on: HCT-15 colon
[47] = tested on: TK-10 renal
[48] = tested on: OVCAR-4 ovarian
[49] = tested on: M19-MEL melanoma
[50] = tested on: HCT-116 colon
[51] = tested on: DMS 114 small cell lung
[52] = tested on: SR leukemia
[53] = tested on: UACC-62 melanoma
[54] = tested on: SK-OV-3 ovarian
[55] = tested on: IGROV1 ovarian
[56] = tested on: SF-539 CNS
[57] = tested on: LXFL 529 NSCLC

Measured: TGI

CCCC(=O)CC(C)C(=O)C(=O)NC12CC3CC(CC(C3)C1)C2 (stereo not given)
not listed: [49] | [50] | [51] | [52] | [53] | [54] | [55] | [56] | [57]
> 100 µM: all other assays above

O=C1C(Cl)N(c2ccccc2Cl)C1c1c[nH]c2ccccc12 (stereo not given)
not listed: [7] | [8] | [10] | [12] | [23] | [35] | [36] | [38] | [41] | [43] | [45] | [46] | [57]
> 100 µM: all other assays above

COc1cc(/C=C/c2csnn2)cc(OC)c1OC
not listed: [7] | [16] | [20] | [31]
> 100 µM: all other assays above
